{"source": "patent US20160228506A1", "about": "“Compositions and Formulations for Prevention and Reduction of Tumorigenesis, Cancer Cell Proliferation and Invasion, and Methods of Production and Use Thereof in Cancer Treatment” (PRONUTRIA, INC., priority 2013, published 2016)", "key": {"burn injury": {"system": "burn injury", "settings": "0.35 g/kg supplementation, cited from earlier work"}, "male Zucker fatty rats": {"system": "male Zucker fatty rats", "assay": "OGTT in Zucker fatty rats: SEQID-00105, alogliptin and combination, blood glucose", "format": "in vivo, rat", "settings": "OGTT glucose 2 g/kg", "method": "In another experiment, an OGTT was performed in 24, fasted, male Zucker fatty rats with indwelling jugular vein catheters (JVC) to assess the acute effects of nutritive protein dosing on glycemic control as well as insulin and GLP-1 levels. The capacity of SEQID-00105 to improve glucose control was tested by comparing the blood glucose excursion of SEQID-00105 to alogliptin to SEQID-00105+alogliptin to vehicle in the context of an oral glucose tolerance test. All rodents were approximately 10-11 weeks old, weighed average of approximately 430 g and acclimated for 4-5 days prior to testing. Prior to treatment, all rats were fasted overnight for fourteen hours. […] N=6 rats per treatment group. The error bars shown are the standard errors of the mean. Each group was compared post hoc on GraphPad Prism 6, two-way ANOVA, Dunnett's multiple comparisons test first comparing within each group to the fasting glucose concentration, followed by a comparison of each time point to vehicle. […] The integrated area under curve (AUC) was calculated on Microsoft Excel using the Linear-Log Trapezoidal Method and two-way ANOVA and Dunnett's multiple comparisons tests was conducted on GraphPad Prism 6.03."}, "[1]": {"system": "serotonin (5-HT) synthesis", "settings": "oral intake of free Tryptophan; cited from earlier work"}, "[2]": {"assay": "Intact half-life during simulated gastric fluid (SGF) digestion", "settings": "SGF pH 1.5, pepsin:polypeptide 1:20 w/w, 37° C.; intact protein"}, "[3]": {"system": "ribosomal protein S6 (rps6)", "assay": "AlphaScreen SureFire rps6 phosphorylation in primary rat skeletal muscle cells", "format": "cell-based", "settings": "primary RSkMC, different Leucine concentrations", "description": "Primary Rat Skeletal Muscle Cell (RSKMC) culture. RSKMC were isolated using protocol described herein and cryopreserved in liquid nitrogen. The cells were also maintained in RSKMC medium (Cell Applications) in T75 tissue flask in a 37° C., 5% CO2 tissue culture incubator (Model 3110, Thermo Fisher Scientific). The cells were split every three day when they reached ˜90% confluency. RSKMC cells were cultured in RSKMC medium in T75 tissue flask to 100% confluency. The culture medium was aspirated from the culture flask and rinsed once with 10 ml of DPBS, and then 1.5 ml of 0.25% trypsin/EDTA was added to the cells. After the cells were detached from the flask, 10 ml of culture medium were added. The medium was pipetted up and down with a 10 ml pipet to detach the cells from the flask. The cells were then seeded into clear bottom 96-well tissue culture plates at a density of 50,000 cells per well. Following overnight culture in a 37° C., 5% CO2 incubator, the cells were starved over a period of 4 hours with starvation DME/F12 medium without FBS and leucine in a 37° C., 5% CO2 tissue culture incubator, then starved for another hour incubation with Hank's Buffered Salt Solution (HBSS). The cells were stimulated with different concentrations of leucine in starvation medium for 15 and 30 minutes. […]"}, "[4]": {"assay": "Thermostability, temperature of aggregation (ProteoStat Thermal Shift)", "format": "physicochemical", "settings": "Table E31D; heated 25° C. to 95° C.", "method": "The thermostability of proteins in a buffer cocktail of Citric Acid and Dibasic Sodium Phosphate over a pH range of 2.8 to 7.1 (preparation described above in Table E31B) was determined using the ProteoStat® Thermal Shift Stability Kit (Enzo Life Sciences) according to the manufacturer's standard protocol. Briefly, protein solutions (˜10 mg/ml) containing 1× ProteoStat TS Detection Reagent were heated from 25° C. to 95° C. at a rate of 0.5° C. per 30 sec using a real-time PCR (rtPCR) thermocycler (BioRad) equipped with a plate reader (SynergyMx, Biotek) while monitoring the fluorescence with a Texas Red filter."}, "Human transglutaminase": {"target": "T1, Human transglutaminase (Homo sapiens, UniProt Q08188)", "T1 sequence (Q08188 1-693)": "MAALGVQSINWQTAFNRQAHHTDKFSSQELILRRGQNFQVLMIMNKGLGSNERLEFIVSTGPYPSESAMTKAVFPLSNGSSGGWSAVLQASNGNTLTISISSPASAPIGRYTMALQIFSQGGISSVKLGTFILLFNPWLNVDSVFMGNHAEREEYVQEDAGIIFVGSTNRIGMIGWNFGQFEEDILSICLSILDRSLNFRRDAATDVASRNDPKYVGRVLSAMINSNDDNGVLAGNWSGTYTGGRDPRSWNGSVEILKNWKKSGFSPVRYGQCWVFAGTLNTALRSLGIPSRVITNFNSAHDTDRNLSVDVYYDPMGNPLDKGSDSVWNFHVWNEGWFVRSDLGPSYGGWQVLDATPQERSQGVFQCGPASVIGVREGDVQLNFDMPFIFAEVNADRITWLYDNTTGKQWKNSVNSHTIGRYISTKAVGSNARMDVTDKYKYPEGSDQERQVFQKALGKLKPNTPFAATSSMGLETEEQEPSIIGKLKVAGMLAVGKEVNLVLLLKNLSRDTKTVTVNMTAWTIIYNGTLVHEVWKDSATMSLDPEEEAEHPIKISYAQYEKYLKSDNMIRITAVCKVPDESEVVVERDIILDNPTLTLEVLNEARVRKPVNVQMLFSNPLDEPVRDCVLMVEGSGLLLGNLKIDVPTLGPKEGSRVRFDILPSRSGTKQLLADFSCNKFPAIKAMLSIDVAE", "settings": "read-out: Kd for calcium; cited from earlier work"}, "healthy subjects": {"system": "healthy subjects", "settings": "oral supplementation, vs control; cited from earlier work"}, "[5]": {"assay": "SGF digest of 168 nutritive polypeptide library, intact protein by LC-MS/MS", "format": "in vitro ADME", "settings": "168 nutritive polypeptide library SGF digest, LC-MS/MS spectral counts", "method": "The in vitro intact half-life of multiple polypeptides in a complex mixture was determined using the simulated gastric in vitro digestion described above. Briefly, the 168 nutritive polypeptide library was generated as described herein by cloning, transforming, and expressing a gene library encoding 168 proteins as a single mixture. The recombinantly expressed proteins were purified from host cell proteins by IMAC purification as described herein.\nThe 168 Protein Library was treated with SGF as described above and the t=0 and t=10 min samples were analyzed for intact protein by LC-MS/MS. To begin, 10 μg of sample was loaded onto a 10% SDS-PAGE gel (Invitrogen) and run approximately 5 cm into the gel. The gel was excised into ten fractions from 100 kD to the dye front and the gel slices were processed by washing with 25 mM ammonium bicarbonate, followed by acetonitrile. Gel fractions were then reduced with 10 mM dithiothreitol at 60° C., followed by alkylation with 50 mM iodoacetamide at room temperature. […] The samples were then analyzed by nano LC/MS/MS using an EasynLC 1000 HPLC system interfaced to a ThermoFisher Q Exactive. […] A full list of detected proteins and their spectral counts (SpC) was generated and reported as a function of each collected gel fraction. […]"}}, "data": [{"compound": "NC(=O)CC[C@H](N)C(=O)O", "note": "[Glutamine]", "values": [{"measurement": "reduction in hospital stay", "setting": "burn injury; 12-day burn injury study", "result": 6, "unit": "days"}, {"measurement": "decrease in Lactulose/mannitol ratio", "setting": "burn injury; after 3 days, vs 5.5× decrease", "result": 8.8, "unit": "×"}]}, {"compound": "Cn1c(=O)cc(N2CCC[C@@H](N)C2)n(Cc2ccccc2C#N)c1=O", "note": "[Alogliptin]", "values": [{"measurement": "blood glucose compared to vehicle", "setting": "male Zucker fatty rats; at 30 minutes following glucose challenge", "result": "significantly lower blood glucose than vehicle"}, {"measurement": "blood glucose compared to vehicle", "setting": "male Zucker fatty rats; at 60 minutes following glucose challenge", "result": "significantly lower than vehicle"}, {"measurement": "glucose AUC compared to vehicle", "setting": "male Zucker fatty rats; between time 0 and 120 minutes, P=0.0051", "result": "significantly less than vehicle"}, {"measurement": "glucose AUC compared to vehicle", "setting": "male Zucker fatty rats; between time 0 and 240 minutes, P=0.0054", "result": "significantly less than vehicle"}]}, {"compound": "N[C@@H](Cc1c[nH]c2ccccc12)C(=O)O", "note": "[Tryptophan]", "values": [{"measurement": "increase of 5-HT production", "setting": "[1]", "result": 2, "unit": "fold"}]}, {"compound": "SEQID-00218: nutritive polypeptide (GTIENLEEAKKKLLKDVEVLSQRLEEKALAYDKLEKTKTRLQQELDDLLVDLDHQ; listed as Bos taurus)", "values": [{"measurement": "SGF Half-life (t½)", "setting": "[2]", "result": 360, "unit": "s"}]}, {"compound": "CC(C)C[C@H](N)C(=O)O", "note": "[leucine]", "values": [{"measurement": "phosphorylation of rps6", "setting": "[3]", "result": "stimulates phorphorylation of rps6 in primary RSkMC in a dose-dependent manner"}]}, {"compound": "SEQID-00212: nutritive polypeptide (LEEAKKKLLKDVEVLSQRLEEKALAYDKLEKTKTRLQQELDDLLVDLDHQ; listed as Bos taurus)", "values": [{"measurement": "SGF Half-life (t½)", "setting": "[2]", "result": 18, "unit": "s"}]}, {"compound": "SEQID-00237: nutritive polypeptide (EEDKVNTLTKAKTKLEQQVDDLEGSLEQEKKLRMDLERAKRKLEGDLKLA; listed as Bos taurus)", "values": [{"measurement": "Tagg (pH 7.1)", "setting": "[4]", "result": 45}, {"measurement": "SGF Half-life (t½)", "setting": "[2]", "result": 36, "unit": "s"}]}, {"compound": "SEQID-00215: nutritive polypeptide (KKLLKDVEVLSQRLEEKALAYDKLEKTKTRLQQELDDLLVDLDHQRQIVSNLEKK; listed as Bos taurus)", "values": [{"measurement": "SGF Half-life (t½)", "setting": "[2]", "result": 120, "unit": "s"}]}, {"compound": "SEQID-00143: nutritive polypeptide (LYLEEVSKNLVEINPLKLEVKAKPWFVYTPMHGVGFDIFSTIVKKTLCLVEGK; listed as Saccharomyces cerevisiae)", "values": [{"measurement": "SGF Half-life (t½)", "setting": "[2]", "result": 18, "unit": "s"}]}, {"compound": "[Ca+2]", "note": "[calcium, calcium (Ca2+)]", "values": [{"measurement": "Kd", "setting": "Human transglutaminase", "result": "300 to 3000", "unit": "nM"}]}, {"compound": "N=C(N)NCCC[C@H](N)C(=O)O", "note": "[arginine, Arginine]", "values": [{"measurement": "increase in collagen deposition at wound sites", "setting": "healthy subjects", "result": 2.4, "unit": "×"}]}, {"compound": "SEQID-00615: protein of the 168 nutritive polypeptide library (MAGIIHKIEETLHMGGGRKEEEEKRKGEGQGHGGYKGEGQGHGGYKGEGQG; listed as Vitis vinifera)", "values": [{"measurement": "% Intact Protein at 10 min", "setting": "[5]", "result": 85.7, "unit": "%"}]}]}
